Converted amounts (≈) assume the structure as drawn. Where two headings read alike, the source gives them in different places.

One assay has as its system M. tuberculosis H37Rv. The following applies: H37Rv and some Mtb drug-resistant clinical isolates ref 2, 60, 61, cited from earlier work.
Assay [1] relates to clinical isolate 12331 (IRE resistant). Nature of the assay: microbe, parasite or virus in culture. The assay is classed as cell-based, Mycobacterium tuberculosis.
For assay [2], the system named is clinical isolate 85/13 (Beijing, SIRE resistant). Nature of the assay: microbe, parasite or virus in culture. The assay is classed as cell-based, Mycobacterium tuberculosis.
Assay [3] deals with clinical isolate 126 (INH resistant). Nature of the assay: microbe, parasite or virus in culture. Format: cell-based, Mycobacterium tuberculosis.
[4] abbreviates: compounds tested separately, 12331.
Setting [5] is: compounds tested separately, 85/13.
Setting [6] is: compounds tested separately, 126.
Where [7] appears, read: Mycobacterium tuberculosis, read-out: MIC for EMB in a Presence of Terpenes.
The mark [8] stands for this setting: Mycobacterium tuberculosis, read-out: MIC for INH in a Presence of Terpenes.
[9] abbreviates: Mycobacterium tuberculosis, read-out: MIC for RMP in a Presence of Terpenes.

Consider `Cc1cc(O)c2c(c1)C(=O)C=CC2=O` [7-methyljuglone], for which the FICI is 0.2 with M. tuberculosis H37Rv (in combination with isoniazid) and 0.5 in the assay with M. tuberculosis H37Rv (with rifampicin).

Regarding `C=C(C)[C@H]1CC=C(C)CC1` [(R)-limonene], the MIC in assay [1] (setting [4]) was found to be 128 mg/L (≈ 940 µM); in assay [2] (setting [5]), 256 mg/L (≈ 1880 µM); in assay [3] (setting [6]), 128 mg/L (≈ 940 µM).

With `CC[C@@H](CO)NCCN[C@@H](CC)CO` [EMB, ethambutol, reference compound], the MIC is 16 mg/L (≈ 78.3 µM) in assay [1] (Mycobacterium tuberculosis), 16 mg/L (≈ 78.3 µM) in assay [2] (Mycobacterium tuberculosis) and 0.25 mg/L (≈ 1.22 µM) in assay [3] (Mycobacterium tuberculosis).

With `NNC(=O)c1ccncc1` [INH, isoniazid, reference compound], the MIC in assay [1] (Mycobacterium tuberculosis) came out at 16 mg/L (≈ 117 µM); in assay [2] (Mycobacterium tuberculosis) it was 16 mg/L (≈ 117 µM); in assay [3] (Mycobacterium tuberculosis), 0.5 mg/L (≈ 3.65 µM).

`CO[C@H]1/C=C/O[C@@]2(C)Oc3c(C)c(O)c4c(O)c(c(/C=N/N5CCN(C)CC5)c(O)c4c3C2=O)NC(=O)/C(C)=C\C=C\[C@H](C)[C@H](O)[C@@H](C)[C@@H](O)[C@@H](C)[C@H](OC(C)=O)[C@@H]1C` [RMP, rifampicin, reference compound]: the MIC in assay [1] (Mycobacterium tuberculosis) stood at 256 mg/L (≈ 311 µM); in assay [2] (Mycobacterium tuberculosis) it was 128 mg/L (≈ 156 µM); in assay [3] (Mycobacterium tuberculosis), 0.25 mg/L (≈ 0.304 µM).

Regarding `CC(C)=CCC[C@](C)(O)C1CC=C(C)CC1` (stereo partly shown) [bisabolol], the MIC in assay [1] (setting [4]) is 256 mg/L (≈ 1150 µM); in assay [2] (setting [5]), 128 mg/L (≈ 576 µM); in assay [3] (setting [6]), 32 mg/L (≈ 144 µM).

For the compound `C=CC(=C)CCC=C(C)C` [myrcene], the MIC in assay [1] (Mycobacterium tuberculosis) was 512 mg/L (≈ 3760 µM); in assay [1] (setting [7]), 16 mg/L; in assay [1] (setting [8]), 16 mg/L; in assay [1] (setting [9]), 256 mg/L; in assay [2] (Mycobacterium tuberculosis), above 512 mg/L; in assay [2] (setting [7]) it was 16 mg/L. Besides, the MIC is 16 mg/L in assay [2] (setting [8]); 128 mg/L in assay [2] (setting [9]); 256 mg/L (≈ 1880 µM) in assay [3] (Mycobacterium tuberculosis); 0.25 mg/L in assay [3] (setting [7]); 0.5 mg/L in assay [3] (setting [8]); 0.25 mg/L in assay [3] (setting [9]).

Regarding `CCCCCCCC/C=C\CCCCCCCC(=O)O` [oleic acid], the FICI in the assay on M. tuberculosis H37Rv (in combination with isoniazid, rifampicin and ethambutol) is 0.09–0.36.

As for `C=C1CCC2(C(C)C)CC12` (stereo not shown) [sabinene], the MIC is above 512 mg/L in assay [1] (Mycobacterium tuberculosis); 16 mg/L in assay [1] (setting [7]); 16 mg/L in assay [1] (setting [8]); 256 mg/L in assay [1] (setting [9]); 512 mg/L (≈ 3760 µM) in assay [2] (Mycobacterium tuberculosis); 16 mg/L in assay [2] (setting [7]). For the same compound, the MIC was 16 mg/L in assay [2] (setting [8]); 128 mg/L in assay [2] (setting [9]); 128 mg/L (≈ 940 µM) in assay [3] (Mycobacterium tuberculosis); 0.25 mg/L in assay [3] (setting [7]); 0.5 mg/L in assay [3] (setting [8]); 0.25 mg/L in assay [3] (setting [9]).

As to `CC(=O)c1c(O)c(C)c(O)c2c1OC1=CC(=O)C(C(C)=O)C(=O)C12C` (stereo not shown) [usnic acid], in the assay with M. tuberculosis H37Rv (with rifampicin), the FICI is given as 0.25–0.38.

As to `CC1=CCC2CC1C2(C)C` (stereo not drawn) [α-pinene], the MIC in assay [1] (Mycobacterium tuberculosis) was above 512 mg/L; in assay [1] (setting [7]) it was 16 mg/L; in assay [1] (setting [8]), 16 mg/L; in assay [1] (setting [9]) it was 256 mg/L; in assay [2] (Mycobacterium tuberculosis) it was 512 mg/L (≈ 3760 µM); in assay [2] (setting [7]), 16 mg/L. Further, the MIC amounted to 16 mg/L in assay [2] (setting [8]); 128 mg/L in assay [2] (setting [9]); 128 mg/L (≈ 940 µM) in assay [3] (Mycobacterium tuberculosis); 0.25 mg/L in assay [3] (setting [7]); 0.5 mg/L in assay [3] (setting [8]); 0.25 mg/L in assay [3] (setting [9]).

For the compound `C=C[C@]1(C)CC[C@@H](C(=C)C)C[C@H]1C(=C)C` [β-elemene], the MIC in assay [1] (setting [4]) was 256 mg/L (≈ 1250 µM); in assay [2] (setting [5]) it was above 512 mg/L; in assay [3] (setting [6]) it was 256 mg/L (≈ 1250 µM).

(S)-limonene: the MIC was 512 mg/L in assay [1] (setting [4]), above 512 mg/L in assay [2] (setting [5]) and 256 mg/L in assay [3] (setting [6]).

The values are drawn from paper PMC6017631, “The Effect of Combining Natural Terpenes and Antituberculous Agents against Reference and Clinical Mycobacterium tuberculosis Strains” (Molecules : A Journal of Synthetic Chemistry and Natural …, 2018).
